Assay results from PMC12152147, “DDB1 engagement defines the selectivity of S656 analogs for cyclin K degradation over CDK inhibition” (EMBO Reports, 2025).
Read-outs that look alike come from different tables or passages of the source.

Legend:
[1] = tested on: OCI-AML5 cells expressing shRNA targeting CUL4A or CUL4B; assay: Dose response in OCI-AML5 expressing shRNAs targeting CUL4A, CUL4B or control; type: cell-based, H. sapiens; conditions: ratio of IC50 in shCUL4A vs shCTRL OCI-AML5 cells
[2] = tested on: OCI-AML5 cells; assay: Dose-response proliferative assay in OCI-AML5 (4 days, CellTiterGlo); type: cell-based, H. sapiens; conditions: for IC50: Homo sapiens
Procedure, shortened: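 Viability assessed after 4 days of compound exposure at 37 °C, 5% CO2. Compounds tested as 8 dilutions (1:4, 10 μM to 0.5 nM) on 300 OCI-AML5 cells/well grown in αMEM with 10% heat-inactivated FBS and 10 ng/mL GM-CSF.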

[3] = target: T1, CDK9/CyclinT (Homo sapiens, UniProt P50750); assay: CDK9/CyclinT in vitro kinase activity, single concentration 1 μM; type: biochemical; conditions: single concentration 1 μM
T1 construct: purchased BPS Bioscience 79628
Protocol: (§1) Kinase activity was assessed using the kinase assay kits from BPS Bioscience for CDK1, CDK9 and CDK12 with Kinase Glo MAX in duplicates. Compounds were tested at a single concentration of 1 μM for CDK1 and CDK9 activity, and in a dilution ranging from 0.64 nM to 50 μM for CDK12 activity. Chemiluminescence was read using the Neo Synergy BioTek plate reader.

[4] = tested on: OCI-AML5 cells expressing shRNAs targeting CDK1, 2, 4, 7, 9, cyclin K; assay: Dose response in OCI-AML5 expressing shRNAs targeting CDK1, 2, 4, 7, 9, cyclin K or control; type: cell-based, H. sapiens; conditions: for IC50: Homo sapiens; for class based on cellular selectivity: IC50 in shRNA OCI-AML5 cells and cyclin KeGFP degradation; for Class: class from shRNA IC50 profile and cyclin K-eGFP degradation
[5] = target: T2, CDK1 (Homo sapiens, UniProt P06493); assay: CDK1 in vitro kinase activity, single concentration 1 μM; type: biochemical; conditions: single concentration 1 μM
T2 construct: purchased BPS Bioscience 79597
Protocol: as §1

[6] = tested on: cyclin KeGFP; assay: Cyclin KeGFP reporter system (eGFP/mCherry MFI by flow cytometry);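 note: 10 μM compound for 3 h relative to DMSO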; type: cell-based, H. sapiens; conditions: cyclin K-eGFP reporter
Procedure, shortened: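 Degradation read as eGFP-to-mCherry MFI ratio relative to DMSO controls, from flow cytometry of the selected G7 clone of OCI-AML5 cells transduced with the cyclin KeGFP reporter.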

[7] = tested on: OCI-AML5 and U937 cell lines; assay: Synergistic interaction assay with THZ531 (Bliss score); type: cell-based
Text: 3. It may be worthwhile to investigate whether the CDK12/13 inhibitor THZ531 could synergize with S656 or analogues like UOM-005636 that specifically degrade Cyclin K, in combination cytotoxicity assays, assessing selective suppression of AML viability over normal cells. Both […]
inhibiting CDK12, and S656 / UOM-005636 by degrading Cyclin K. Similar synergistic effects were observed by Katharina et al., where THZ531 promoted prostate ca ncer cell sensitivity to androgen deprivation therapy [Frei, K et. al. Inhibition of the Cyclin K-CDK12 complex induces DNA damage and increases the effect of androgen deprivation therapy in prostate cancer. Int J […]
Indeed, THZ531 is a covalent CDK12/13 inhibitor that specifically binds to the kinase pocket of […]
pocket of CDK12, and that pre-incubation with THZ531 competes with S656-mediated Cyclin K degradation (see Figure 5E).
We performed a synergistic interaction assay between THZ531 and S656 or UOM-005636 in OCI-AML5 and U937 cell lines (see below). […]
interactions between THZ531 and our cyclin K degrader molecules. This is likely due to both drugs competing for the same binding site, rather than acting through complementary pathways. […]

[8] = tested on: primary AML specimens; assay: Dose-response assays in primary AML specimens (6 days, CellTiterGlo); type: cell-based, human; conditions: Homo sapiens, 144 h, read-out: median IC50 in a panel of 40 primary AMLs, 6 days
Protocol: Freshly thawed primary AML specimens were used for chemical screens. Cryopreserved cells were thawed at 37 °C in IMDM containing 20% FBS and DNase I (100 μg/mL). Cells were resuspended in IMDM supplemented with 15% BIT (BSA, insulin, transferrin; StemCell Technologies), 100 ng/mL SCF, 50 ng/mL FLT3L, 20 ng/mL IL3, 20 ng/mL G-CSF, 10^−4 mol/L b-mercaptoethanol, gentamicin (50 μg/mL), ciprofloxacin (10 μg/mL), SR1 (500 nmol/L) and UM729 (500 nmol/L). Cells were plated in 384-well white plates, 5000 cells per well in 50 μL. Compounds were dissolved in DMSO, diluted in media immediately before use and added to seeded cells at the unique concentration of 1 μM. Control wells received DMSO (0.1%) only. Cell viability was evaluated after 6 days in culture using the CellTiterGlo assay according to the manufacturer’s instruction. Percentage of inhibition for dose response curves was calculated as 100 – (100 × (mean luminescence [compound]/mean luminescence [DMSO])). Dose response curves were generated using nonlinear regression in GraphPad Prism version.
Dose-response assays in primary AML specimens were performed as in chemical screen (see above) with the exception that compounds were tested in serial dilution (8 dilutions, 1:4, 10 μM down to 0.5 nM). Dose-response assays in OCI-AML5 cell line were conducted similarly with the following modifications: 300 cells per well were seeded in 50 μL of cell line media and cell viability was evaluated after 4 days in culture.

[9] = target: T3, OCI-AML5 total protein extracts (cyclin K, CDKs, DDB1) (Homo sapiens, UniProt Q86UQ4); assay: Pull-down with immobilized probes and quantitative mass spectrometry; type: binding, H. sapiens; conditions: protein ABCA13 (Q86UQ4)
T3 construct: endogenous in cells; host or cells: OCI-AML5 total protein extract
Protocol: (§2) Probe compounds were immobilized through their terminal amine on NHS-sepharose beads as previously described (Médard et al, [2015]). The prepared beads were then washed in PBS and equilibrated in Triton X-100 buffer. For each replicate, 1–2 mg of total proteins (2 mg/ml) were incubated end-over-end with 25 μl of beads overnight at 4 °C in low protein binding microtubes (Sarstedt). The samples were then washed twice in Triton X-100 buffer, transferred to new microtubes and further washed six times in PBS including another microtube transfer at the last wash. Beads pellets were resuspended in 50 mM ammonium bicarbonate and subjected to reduction, alkylation and tryptic digest as described above. Peptides were separated on an home-made reversed-phase column (150-μm i.d. by 200 mm) with a 56-min gradient from 10 to 30% ACN-0.2% FA and a 600-nl/min flow rate on a Easy nLC-1200 connected to a Exploris 480 (ThermoFisher Scientific, San Jose, CA). Each full MS spectrum acquired at a resolution of 120,000 was followed by tandem-MS (MS-MS) spectra acquisition on the most abundant multiply charged precursor ions for 3 s. Tandem-MS experiments were performed using higher energy collision dissociation (HCD) at a collision energy of 34%. The data were processed using PEAKS X Pro (Bioinformatics Solutions, Waterloo, ON) and a Uniprot human database (20366 entries). Mass tolerances on precursor and fragment ions were 10 ppm and 0.01 Da, respectively. Fixed modification was carbamidomethyl (C). Variable selected posttranslational modifications were acetylation (N-ter), oxidation (M), deamidation (NQ), phosphorylation (STY). The data were visualized with Scaffold 5.0 (protein threshold, 99%, with at least 2 peptides identified and a false-discovery rate [FDR] of 1% for peptides).
(§3) Differential Enrichment analysis of Proteomics data (DEP) package (Zhang et al, [2018]) in R was used to analyze the data (excluding proteins identified based on a single peptide), including data filtering, normalization, imputation of missing values and statistical testing of differentially expressed proteins.

[10] = target: T4, OCI-AML5 total protein extracts (cyclin K, CDKs, DDB1) (Homo sapiens, UniProt Q96IU4); assay: as above; type: binding, H. sapiens; conditions: protein ABHD14B (Q96IU4)
T4 construct: endogenous in cells; host or cells: OCI-AML5 total protein extract
T4 sequence (Q96IU4 1-210): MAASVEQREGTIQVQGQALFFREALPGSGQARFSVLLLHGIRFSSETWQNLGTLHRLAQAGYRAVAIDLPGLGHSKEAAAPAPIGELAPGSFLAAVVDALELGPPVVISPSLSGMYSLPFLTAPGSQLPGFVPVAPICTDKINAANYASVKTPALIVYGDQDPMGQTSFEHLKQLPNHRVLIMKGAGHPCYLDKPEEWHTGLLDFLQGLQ
Protocol: as §2, §3

[11] = target: T5, OCI-AML5 total protein extracts (cyclin K, CDKs, DDB1) (Homo sapiens, UniProt Q6UXT9); assay: as above; type: binding, H. sapiens; conditions: protein ABHD15 (Q6UXT9)
T5 construct: endogenous in cells; host or cells: OCI-AML5 total protein extract
T5 sequence (Q6UXT9 24-468): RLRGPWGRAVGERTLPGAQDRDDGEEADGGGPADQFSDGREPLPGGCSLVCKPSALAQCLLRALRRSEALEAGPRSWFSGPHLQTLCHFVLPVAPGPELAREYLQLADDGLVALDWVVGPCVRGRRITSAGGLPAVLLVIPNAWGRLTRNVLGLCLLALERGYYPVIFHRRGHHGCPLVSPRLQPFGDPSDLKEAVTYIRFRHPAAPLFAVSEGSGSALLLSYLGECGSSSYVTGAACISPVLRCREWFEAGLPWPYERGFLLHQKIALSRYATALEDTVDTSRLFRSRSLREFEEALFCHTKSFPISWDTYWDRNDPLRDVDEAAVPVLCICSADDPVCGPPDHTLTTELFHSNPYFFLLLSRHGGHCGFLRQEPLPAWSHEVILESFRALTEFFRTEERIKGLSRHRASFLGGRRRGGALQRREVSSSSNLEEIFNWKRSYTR
Protocol: as §2, §3

[12] = target: T6, OCI-AML5 total protein extracts (cyclin K, CDKs, DDB1) (Homo sapiens, UniProt P45844); assay: as above; type: binding, H. sapiens; conditions: protein ABCG1 (P45844)
T6 construct: endogenous in cells; host or cells: OCI-AML5 total protein extract
Protocol: as §2, §3

[13] = target: T7, OCI-AML5 total protein extracts (cyclin K, CDKs, DDB1) (Homo sapiens, UniProt P21439); assay: as above; type: binding, H. sapiens; conditions: protein ABCB4 (P21439)
T7 construct: endogenous in cells; host or cells: OCI-AML5 total protein extract
Protocol: as §2, §3

[14] = OCI-AML-5, OCI-AML5 expressing shRNA CCNK (cyclin K), read-out: IC50 shRNA CCNK
[15] = OCI-AML-5, OCI-AML5 expressing shRNA CDK1, read-out: IC50 shRNA CDK1
[16] = OCI-AML-5, OCI-AML5 expressing shRNA CDK2, read-out: IC50 shRNA CDK2
[17] = OCI-AML-5, OCI-AML5 expressing shRNA CDK4, read-out: IC50 shRNA CDK4
[18] = OCI-AML-5, OCI-AML5 expressing shRNA CDK7, read-out: IC50 shRNA CDK7
[19] = OCI-AML-5, OCI-AML5 expressing shRNA CDK9, read-out: IC50 shRNA CDK9
[20] = OCI-AML-5, 96 h, 4 days incubation, read-out: IC50 OCI-AML5

T2 sequence (P06493 whole entry): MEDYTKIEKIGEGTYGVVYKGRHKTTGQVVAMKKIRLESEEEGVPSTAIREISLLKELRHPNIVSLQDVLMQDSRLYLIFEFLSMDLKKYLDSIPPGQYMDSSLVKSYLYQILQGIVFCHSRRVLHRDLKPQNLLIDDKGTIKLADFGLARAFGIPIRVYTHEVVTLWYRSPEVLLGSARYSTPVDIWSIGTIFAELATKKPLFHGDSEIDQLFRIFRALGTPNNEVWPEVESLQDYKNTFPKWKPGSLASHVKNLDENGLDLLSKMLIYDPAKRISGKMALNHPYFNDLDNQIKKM
T2 sequence (P14635 whole entry partner): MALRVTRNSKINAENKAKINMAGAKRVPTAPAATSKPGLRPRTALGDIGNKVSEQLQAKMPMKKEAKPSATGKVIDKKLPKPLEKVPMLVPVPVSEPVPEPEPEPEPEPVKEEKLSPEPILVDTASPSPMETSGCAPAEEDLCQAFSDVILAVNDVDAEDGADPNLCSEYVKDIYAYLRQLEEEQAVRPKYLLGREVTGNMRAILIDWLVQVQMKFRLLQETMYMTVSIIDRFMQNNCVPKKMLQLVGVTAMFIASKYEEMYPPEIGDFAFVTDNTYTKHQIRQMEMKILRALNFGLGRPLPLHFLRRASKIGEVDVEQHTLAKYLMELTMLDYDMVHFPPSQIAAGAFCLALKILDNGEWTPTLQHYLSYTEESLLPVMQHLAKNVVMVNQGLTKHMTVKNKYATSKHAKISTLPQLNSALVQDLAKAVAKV
T7 sequence (P21439 whole entry): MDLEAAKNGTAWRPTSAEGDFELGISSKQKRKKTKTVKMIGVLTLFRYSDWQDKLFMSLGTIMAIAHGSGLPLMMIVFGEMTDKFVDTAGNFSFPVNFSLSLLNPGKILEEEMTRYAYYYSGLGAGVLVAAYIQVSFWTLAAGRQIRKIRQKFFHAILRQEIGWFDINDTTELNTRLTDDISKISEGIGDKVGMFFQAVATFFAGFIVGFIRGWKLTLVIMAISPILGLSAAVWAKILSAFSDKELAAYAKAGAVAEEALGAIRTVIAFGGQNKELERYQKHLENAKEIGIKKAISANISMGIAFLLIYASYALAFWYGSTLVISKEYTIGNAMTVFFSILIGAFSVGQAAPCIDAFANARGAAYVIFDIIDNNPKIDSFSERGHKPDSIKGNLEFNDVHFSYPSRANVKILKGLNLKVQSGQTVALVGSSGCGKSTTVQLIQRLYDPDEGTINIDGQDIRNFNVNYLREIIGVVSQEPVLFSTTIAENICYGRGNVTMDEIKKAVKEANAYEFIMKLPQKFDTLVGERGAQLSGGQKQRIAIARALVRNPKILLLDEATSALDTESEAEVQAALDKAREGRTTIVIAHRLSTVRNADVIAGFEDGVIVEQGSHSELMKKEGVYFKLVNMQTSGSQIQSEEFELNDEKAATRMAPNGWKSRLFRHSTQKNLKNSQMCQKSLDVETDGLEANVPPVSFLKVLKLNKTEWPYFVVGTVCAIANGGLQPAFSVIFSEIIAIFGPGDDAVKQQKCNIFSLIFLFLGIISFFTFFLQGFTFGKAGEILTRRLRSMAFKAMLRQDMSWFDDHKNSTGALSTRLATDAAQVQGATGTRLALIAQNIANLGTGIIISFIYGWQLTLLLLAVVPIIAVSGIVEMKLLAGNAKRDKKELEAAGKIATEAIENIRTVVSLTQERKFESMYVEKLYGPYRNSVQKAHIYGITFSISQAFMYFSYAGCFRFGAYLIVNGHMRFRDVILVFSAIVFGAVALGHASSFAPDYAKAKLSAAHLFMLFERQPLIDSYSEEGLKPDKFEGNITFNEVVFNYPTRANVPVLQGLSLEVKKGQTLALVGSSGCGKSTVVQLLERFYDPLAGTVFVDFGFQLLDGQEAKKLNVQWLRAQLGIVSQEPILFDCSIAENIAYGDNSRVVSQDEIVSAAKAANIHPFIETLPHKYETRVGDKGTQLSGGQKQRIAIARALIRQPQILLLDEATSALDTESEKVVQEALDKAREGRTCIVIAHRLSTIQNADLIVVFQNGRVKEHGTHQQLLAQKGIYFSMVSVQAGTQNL
T1 sequence (P50750 whole entry): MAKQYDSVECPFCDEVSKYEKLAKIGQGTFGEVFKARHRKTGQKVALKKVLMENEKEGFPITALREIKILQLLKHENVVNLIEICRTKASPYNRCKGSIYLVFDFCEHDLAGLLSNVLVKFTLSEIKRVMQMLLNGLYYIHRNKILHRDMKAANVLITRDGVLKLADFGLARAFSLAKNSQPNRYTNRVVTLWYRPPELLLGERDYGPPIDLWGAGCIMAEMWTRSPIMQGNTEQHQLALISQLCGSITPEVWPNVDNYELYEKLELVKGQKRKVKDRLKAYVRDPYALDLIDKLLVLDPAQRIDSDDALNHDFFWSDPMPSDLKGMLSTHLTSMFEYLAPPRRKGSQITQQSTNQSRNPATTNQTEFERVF
T1 sequence (O60563 whole entry partner): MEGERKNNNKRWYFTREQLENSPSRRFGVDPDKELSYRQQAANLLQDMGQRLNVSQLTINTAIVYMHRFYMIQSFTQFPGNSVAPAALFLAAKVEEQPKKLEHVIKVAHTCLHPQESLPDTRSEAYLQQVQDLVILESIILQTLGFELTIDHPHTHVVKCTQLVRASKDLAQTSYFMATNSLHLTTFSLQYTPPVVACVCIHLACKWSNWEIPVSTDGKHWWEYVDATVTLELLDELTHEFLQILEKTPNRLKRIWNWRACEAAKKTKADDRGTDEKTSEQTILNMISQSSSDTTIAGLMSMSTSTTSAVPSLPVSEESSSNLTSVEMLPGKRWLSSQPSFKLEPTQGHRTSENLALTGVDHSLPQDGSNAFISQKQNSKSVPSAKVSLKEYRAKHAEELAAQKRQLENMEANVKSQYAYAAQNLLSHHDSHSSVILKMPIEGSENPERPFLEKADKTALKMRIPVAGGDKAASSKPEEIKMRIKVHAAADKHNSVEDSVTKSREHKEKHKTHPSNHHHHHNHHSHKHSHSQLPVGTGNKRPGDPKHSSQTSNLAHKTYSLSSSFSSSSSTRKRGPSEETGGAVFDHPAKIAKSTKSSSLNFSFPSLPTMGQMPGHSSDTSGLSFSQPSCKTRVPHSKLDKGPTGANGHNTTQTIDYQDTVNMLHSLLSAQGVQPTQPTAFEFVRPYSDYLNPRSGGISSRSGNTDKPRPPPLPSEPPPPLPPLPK

SMILES	Ratio shCUL4A/shCTRL [1]	inhibition at 1 µM [3]	IC50 [4, 14]	IC50 [4, 15]	IC50 [4, 16]	IC50 [4, 17]	IC50 [4, 18]	IC50 [4, 19]	class based on cellular selectivity [4]	Class [4]	inhibition at 1 µM [5]	% degradation cyclin K-eGFP [6]	IC50 [2, 20]	further results
CC(=O)N1CCN(c2ccc(CC(=O)Nc3ncc(SCc4cccnc4)s3)cc2)CC1 [UOM-005614]	0.67	84%	1370 nM	648 nM	1720 nM	2150 nM	1400 nM	743 nM	Class II	2	43%	0%	–	IC50 ([2]; OCI-AML-5, OCI-AML5 cells, read-out: IC50 in AML5): 1730 nM
O=C(Cc1ccc(-c2ccccn2)cc1)Nc1ncc(SCc2cccnc2)s1 [UOM-005636]	2.3	57%	21.7 nM	112 nM	142 nM	140 nM	140 nM	101 nM	Class I (effective cyclin K MGDs (decreased IC50 in cyclin K depleted cells only, and >65% degradation of cyclin KeGFP))	1	69%	80%	85 nM	times more potent than S656 ([2]; OCI-AML5 cell line and panel of 40 primary AMLs): 8; synergistic interaction with THZ531 (Bliss score) [7]: moderate to very low synergistic; IC50 [8]: 154 nM
CN(CCOCCOCCN)c1ccc(CC(=O)Nc2nnc(SCc3cccnc3)s2)cc1 [UOM-005839]	–	–	–	–	–	–	–	–	–	–	–	–	> 10000 nM	UOM-005839_centered ([9]; centered abundance): 0.126; UOM-005839_vs_Beads_ratio ([9]; immobilized probe vs beads): -0.0556; UOM-005839_centered ([10]; centered abundance): 0.505; UOM-005839_vs_Beads_ratio ([10]; immobilized probe vs beads): 3.62; UOM-005839_centered ([11]; centered abundance): 0.886; UOM-005839_vs_Beads_ratio ([11]; immobilized probe vs beads): 4.56; UOM-005839_centered ([12]; centered abundance): -1.3; UOM-005839_vs_Beads_ratio ([12]; immobilized probe vs beads): 1.31; UOM-005839_centered ([13]; centered abundance): 0.902; UOM-005839_vs_Beads_ratio ([13]; immobilized probe vs beads): -2
